# Test results reported in US20240226124A9, “CANNABIDIOL FOR TREATING NEURODEGENERATIVE DISEASES” (AUGUSTA UNIVERSITY RESEARCH INSTITUTE, INC., priority 2021, published 2024).
# Tests used:
# Type in all cases: in vivo, mouse
# 5xFAD mice [1] = experiment: Novel Object Recognition (NOR) test in 5xFAD mice; conditions: CBD 10 mg/kg intraperitoneally every other day, 8 doses over 2 weeks, from −0.2±0.8 in placebo, p≤0.04
# Protocol: (§1) 5xFAD (expressing human APP and PSEN1 transgenes with a total of five AD-linked mutations) transgenic mice (male 9-12-month-olds) were used. These 5xFAD transgenic mice rapidly recapitulate major features of AD amyloid pathology. Mice were randomized into two experimental groups (placebo or CBD-treated; 6-10 mice/group) by a blinded investigator. A group of untreated wild-type (WT) experiments were performed in accordance with the rules and regulations of the Augusta University Institutional Animal Care and Use Committee (IACUC). In the treatment group, mice received CBD isolate (tetrahydrocannabinol-free, Canabidiol Ltd., Dublin, Ireland), 10 mg/kg intraperitoneally every other day for 8 doses over 2 weeks. […]
# (§2) To assess the behavior, Open Field (OF) and Novel Object Recognition (NOR) tests were used. […] The ability of the mouse to discriminate between the familiar and novel object was quantified as a discrimination index, DI=(Tn−Tf)/(Tn+Tf), where Tn is the time spent by the mouse with the novel object, and Tf indicates the time spent with the familiar object. In OF evaluation, mice were tested in a square box (40 cm by 40 cm by 40 cm) for 10 min, and activity was digitally recorded. Distance traveled, mean velocity, and time spent in the center zone were analyzed with Ethovision XT video-tracking software (Noldus Information Technology, USA).
# 5xFAD mice [2] = experiment: Open Field (OF) test in 5xFAD mice; conditions: CBD 10 mg/kg intraperitoneally every other day, 8 doses over 2 weeks, 10 min test, from 190±90 sec in placebo, p>0.05
# Protocol: as §1, §2
# β-amyloid peptide = experiment: Immunofluorescence staining of β-amyloid peptide in brain tissues; conditions: 5xFAD mice, CBD 10 mg/kg intraperitoneally every other day, 8 doses over 2 weeks; hippocampus area
# Protocol: (§3) 5xFAD (expressing human APP and PSEN1 transgenes with a total of five AD-linked mutations) transgenic mice (male 9-12-month-olds) were used. These 5xFAD transgenic mice rapidly recapitulate major features of AD amyloid pathology. Mice were randomized into two experimental groups (placebo or CBD-treated; 6-10 mice/group) by a blinded investigator. A group of untreated wild-type (WT) experiments were performed in accordance with the rules and regulations of the Augusta University Institutional Animal Care and Use Committee (IACUC). In the treatment group, mice received CBD isolate (tetrahydrocannabinol-free, Canabidiol Ltd., Dublin, Ireland), 10 mg/kg intraperitoneally every other day for 8 doses over 2 weeks. Placebo-treated mice were administered along the same schedule as CBD.
# (§4) Brain and blood tissues were collected and processed for histology and Immunofluorescence imaging. Briefly, brain tissues were labeled with specific, fluorescent-conjugated antibodies with fluorescent conjugation against amyloid-β, IL-33, IBA1 (for microglia), TREM2, and GFAP (Glial Fibrillary Acidic Protein for astrocytes identification). Slides were counterstained using DAPI (4′,6-diamidino-2-phenylindole) prior to examination and imaging by Zeiss Fluorescence Microscope.
# IL-33 [3] = experiment: Immunofluorescence staining of IL-33 in brain tissues; conditions: 5xFAD mice, CBD treated compared to untreated group; more evident in astrocytes
# Protocol: as §3, §4
# TREM2 [4] = experiment: Immunofluorescence staining of TREM2 in brain tissues; conditions: 5xFAD mice, CBD treated compared to untreated group; distinctively in microglial cells
# Protocol: as §3, §4
# IL-33 [5] = experiment: Flow cytometry of IL-33 in brain astrocytes (GFAP+ cells); conditions: brain of 5xFAD mice, CBD 10 mg/kg intraperitoneally, 8 doses over 2 weeks; p≤0.001
# Protocol: as §1
# (§5) For flow cytometry analysis, single-cell suspension was prepared from brain, and blood by sieving the brain tissues through a […] cell strainer followed by centrifugation (252 g, 10 min). All cells were then stained with fluorescent antibodies based on routine flow cytometry staining protocol as described previously to quantify astrocytes (GFAP+cells), IL-33, myeloid cells (CD11b+), and TREM2 in the brain as well as leukocytes (CD45+) and IL-6 in the blood. IL-6 was measured as a reliable biomarker in the blood. […] Proper compensation was set to ensure the median fluorescence intensities of negative and positive cells were […] and then was used to gate the population. […]
# TREM2 [6] = experiment: Flow cytometry of TREM2 in brain microglia (CD11b+ cells); conditions: brain of 5xFAD mice, CBD 10 mg/kg intraperitoneally, 8 doses over 2 weeks; p≤0.0001
# Protocol: as §1, §5
# IL-6 = experiment: Flow cytometry of IL-6 in peripheral blood leukocytes; conditions: whole blood of 5xFAD mice, CBD 10 mg/kg intraperitoneally, 8 doses over 2 weeks; decreased from 6.9±1.9%, p≤0.009
# Protocol: 5xFAD (expressing human APP and PSEN1 transgenes with a total of five AD-linked mutations) transgenic mice (male 9-12-month-olds) were used. These 5xFAD transgenic mice rapidly recapitulate major features of AD amyloid pathology. Mice were randomized into two experimental groups (placebo or CBD-treated; 6-10 mice/group) by a blinded investigator. A group of untreated wild-type (WT) experiments were performed in accordance with the rules and regulations of the Augusta University Institutional Animal Care and Use Committee (IACUC). […]
# For flow cytometry analysis, single-cell suspension was prepared from brain, and blood by sieving the brain tissues through a […] cell strainer followed by centrifugation (252 g, 10 min). All cells were then stained with fluorescent antibodies based on routine flow cytometry staining protocol as described previously to quantify astrocytes (GFAP+cells), IL-33, myeloid cells (CD11b+), and TREM2 in the brain as well as leukocytes (CD45+) and IL-6 in the blood. IL-6 was measured as a reliable biomarker in the blood. […] Flow cytometry data were analyzed using FlowJo V10. Proper compensation was set to ensure the median fluorescence intensities of negative and positive cells were […] and then was used to gate the population. […]
structure (smiles),measurement,setting,value
"C=C(C)[C@@H]1CCC(C)=C[C@H]1c1c(O)cc(CCCCC)cc1O [CBD, cannabidiol]","discrimination index (DI), NOR",5xFAD mice [1],0.5±0.9
same,"Central zone stay, OF test",5xFAD mice [2],250 ± 80 s
same,β-amyloid peptide in brain tissues (immunofluorescence),β-amyloid peptide,reduction of β-amyloid peptide
same,IL-33 expression in brain tissues (immunofluorescence),IL-33 [3],increase the expression of IL-33
same,TREM2 expression in brain tissues (immunofluorescence),TREM2 [4],increase in TREM2 expression
same,"increase in IL-33 expression in astrocytes (GFAP+ cells), flow cytometry",IL-33 [5],7 fold
same,"increase in TREM2 expression in microglia (CD11b+ cells), flow cytometry",TREM2 [6],10 fold
same,"IL-6 expression in peripheral leukocytes, flow cytometry",IL-6,2.1±1.4%
